Test results reported in PubChem BioAssay (NCI).
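The compound was tested at five concentrations on cells cultured in 96-well plates, with a 48-hour exposure period. TGI: concentration producing complete growth inhibition.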

Assays:
Assay in all cases: NCI-60 cell line screen, 48 h
[1] = test system: OVCAR-8 ovarian
[2] = test system: RXF 393 renal
[3] = test system: NCI-H522 lung
[4] = test system: M14 melanoma
[5] = test system: SN12C renal
[6] = test system: UACC-62 melanoma
[7] = test system: MDA-N
[8] = test system: HCC-2998 colon
[9] = test system: OVCAR-3 ovarian
[10] = test system: TK-10 renal
[11] = test system: SW-620 colon
[12] = test system: SF-268 CNS
[13] = test system: OVCAR-5 ovarian
[14] = test system: EKVX NSCLC
[15] = test system: COLO 205 colon
[16] = test system: MOLT-4 leukemia
[17] = test system: MCF7 breast
[18] = test system: SK-MEL-2 melanoma
[19] = test system: HT29 colon
[20] = test system: NCI/ADR-RES ovarian
[21] = test system: OVCAR-4 ovarian
[22] = test system: UACC-257 melanoma
[23] = test system: HOP-62 NSCLC
[24] = test system: DU-145 prostate
[25] = test system: HCT-15 colon
[26] = test system: HOP-92 NSCLC
[27] = test system: CAKI-1 renal
[28] = test system: NCI-H226 lung
[29] = test system: K-562 leukemia
[30] = test system: 786-0 renal
[31] = test system: T-47D breast
[32] = test system: U251 CNS
[33] = test system: SF-295 CNS
[34] = test system: IGROV1 ovarian
[35] = test system: SF-539 CNS
[36] = test system: MDA-MB-435
[37] = test system: CCRF-CEM leukemia
[38] = test system: NCI-H460 lung
[39] = test system: SK-OV-3 ovarian
[40] = test system: MDA-MB-231 breast
[41] = test system: SK-MEL-5 melanoma
[42] = test system: SNB-19 CNS
[43] = test system: ACHN renal
[44] = test system: LOX IMVI melanoma
[45] = test system: HCT-116 colon
[46] = test system: HL-60(TB) leukemia
[47] = test system: BT-549 breast
[48] = test system: PC-3 prostate
[49] = test system: A549 NSCLC
[50] = test system: UO-31 renal
[51] = test system: KM12 colon
[52] = test system: HS 578T breast
[53] = test system: RPMI-8226 leukemia
[54] = test system: A498 renal
[55] = test system: MALME-3M melanoma
[56] = test system: NCI-H23 lung
[57] = test system: SNB-75 CNS
[58] = test system: SR leukemia
[59] = test system: SK-MEL-28 melanoma

Structure (SMILES): O=C1/C(=C/c2ccc([N+](=O)[O-])cc2)Sc2scc(-c3cccc([N+](=O)[O-])c3)[n+]21
- TGI [1]: > 54.9 µM
- TGI [2]: 7.94 µM
- TGI [3]: 2.69 µM
- TGI [4]: 17.5 µM
- TGI [5]: 17.3 µM
- TGI [6]: 29.9 µM
- TGI [7]: 15.7 µM
- TGI [8]: 19.1 µM
- TGI [9]: 15.2 µM
- TGI [10]: 17.8 µM
- TGI [11]: 3.35 µM
- TGI [12]: 7.75 µM
- TGI [13]: 24.8 µM
- TGI [14]: 25 µM
- TGI [15]: 3.69 µM
- TGI [16]: > 20.1 µM
- TGI [17]: > 38.3 µM
- TGI [18]: 30.8 µM
- TGI [19]: 9.35 µM
- TGI [20]: 26.3 µM
- TGI [21]: 31.4 µM
- TGI [22]: 18.4 µM
- TGI [23]: 33.9 µM
- TGI [24]: 23.7 µM
- TGI [25]: 5.75 µM
- TGI [26]: 13.8 µM
- TGI [27]: 7.03 µM
- TGI [28]: 29.9 µM
- TGI [29]: 8.16 µM
- TGI [30]: 4.96 µM
- TGI [31]: 24.3 µM
- TGI [32]: 25.6 µM
- TGI [33]: 29.3 µM
- TGI [34]: 10.7 µM
- TGI [35]: 6.44 µM
- TGI [36]: 18.4 µM
- TGI [37]: 1.3 µM
- TGI [38]: 26.1 µM
- TGI [39]: 30.6 µM
- TGI [40]: 16.5 µM
- TGI [41]: 18.6 µM
- TGI [42]: 31.5 µM
- TGI [43]: 14 µM
- TGI [44]: 8.03 µM
- TGI [45]: 18.1 µM
- TGI [46]: 1.07 µM
- TGI [47]: 18.7 µM
- TGI [48]: 26.8 µM
- TGI [49]: 56.7 µM
- TGI [50]: 22 µM
- TGI [51]: 24.6 µM
- TGI [52]: 48.1 µM
- TGI [53]: 11.4 µM
- TGI [54]: 7.98 µM
- TGI [55]: 3.22 µM
- TGI [56]: 42 µM
- TGI [57]: 25.6 µM

Structure (SMILES): O=C(O)c1ccc(C2=Nc3cccc4cccc(c34)N2)cc1
- TGI [1]: > 100 µM
- TGI [2]: > 100 µM
- TGI [3]: > 100 µM
- TGI [4]: > 100 µM
- TGI [5]: > 100 µM
- TGI [6]: > 100 µM
- TGI [7]: > 100 µM
- TGI [8]: > 100 µM
- TGI [9]: > 100 µM
- TGI [10]: > 100 µM
- TGI [11]: > 100 µM
- TGI [12]: > 100 µM
- TGI [14]: > 100 µM
- TGI [15]: > 100 µM
- TGI [16]: > 100 µM
- TGI [17]: > 100 µM
- TGI [18]: > 100 µM
- TGI [19]: > 100 µM
- TGI [20]: > 100 µM
- TGI [21]: > 100 µM
- TGI [58]: > 100 µM
- TGI [22]: > 100 µM
- TGI [23]: > 100 µM
- TGI [24]: > 100 µM
- TGI [25]: > 100 µM
- TGI [26]: > 100 µM
- TGI [27]: > 100 µM
- TGI [28]: > 100 µM
- TGI [29]: > 100 µM
- TGI [30]: > 100 µM
- TGI [31]: > 100 µM
- TGI [32]: > 100 µM
- TGI [33]: > 100 µM
- TGI [34]: > 100 µM
- TGI [35]: > 100 µM
- TGI [36]: > 100 µM
- TGI [37]: > 100 µM
- TGI [38]: > 100 µM
- TGI [39]: > 100 µM
- TGI [40]: > 100 µM
- TGI [41]: > 100 µM
- TGI [42]: > 100 µM
- TGI [43]: > 100 µM
- TGI [44]: > 100 µM
- TGI [45]: > 100 µM
- TGI [46]: > 100 µM
- TGI [47]: > 100 µM
- TGI [59]: > 100 µM
- TGI [48]: > 100 µM
- TGI [49]: > 100 µM
- TGI [50]: > 100 µM
- TGI [51]: > 100 µM
- TGI [52]: > 100 µM
- TGI [53]: > 100 µM
- TGI [55]: > 100 µM
- TGI [56]: > 100 µM
- TGI [57]: > 100 µM

Structure (SMILES): COc1ccc(-c2n[nH]c3nc4ccccc4n3c2=O)cc1
- TGI [1]: > 100 µM
- TGI [2]: > 100 µM
- TGI [3]: > 100 µM
- TGI [4]: > 100 µM
- TGI [5]: > 100 µM
- TGI [7]: > 100 µM
- TGI [8]: > 100 µM
- TGI [10]: > 100 µM
- TGI [11]: > 100 µM
- TGI [12]: > 100 µM
- TGI [13]: > 100 µM
- TGI [14]: > 100 µM
- TGI [15]: > 100 µM
- TGI [16]: > 100 µM
- TGI [17]: > 100 µM
- TGI [18]: > 100 µM
- TGI [19]: > 100 µM
- TGI [20]: > 100 µM
- TGI [21]: > 100 µM
- TGI [22]: > 100 µM
- TGI [23]: > 100 µM
- TGI [24]: > 100 µM
- TGI [25]: > 100 µM
- TGI [26]: > 100 µM
- TGI [27]: > 100 µM
- TGI [28]: > 100 µM
- TGI [30]: > 100 µM
- TGI [31]: > 100 µM
- TGI [32]: > 100 µM
- TGI [34]: > 100 µM
- TGI [35]: > 100 µM
- TGI [36]: > 100 µM
- TGI [37]: > 100 µM
- TGI [38]: > 100 µM
- TGI [40]: > 100 µM
- TGI [41]: > 100 µM
- TGI [42]: > 100 µM
- TGI [43]: > 100 µM
- TGI [44]: > 100 µM
- TGI [45]: > 100 µM
- TGI [46]: > 100 µM
- TGI [47]: > 100 µM
- TGI [59]: > 100 µM
- TGI [48]: > 100 µM
- TGI [49]: > 100 µM
- TGI [50]: > 100 µM
- TGI [51]: > 100 µM
- TGI [52]: > 100 µM
- TGI [54]: > 100 µM
- TGI [55]: > 100 µM
- TGI [56]: > 100 µM
- TGI [57]: > 100 µM
